According to patent US12599561B2, “Localized immunosuppression of allografts for peripheral nerve repair” (UNIVERSITY OF WYOMING, priority 2018, dated 2026):

Columns and labels:
[1] = tested on: DRGs, motor neurons, and Schwann cells; conditions: 72 h
Protocol: It is contemplated that delivery of immunosuppressive agents function within a favorable therapeutic window. PNs are comprised of three major nervous system cell types, motor neurons, sensory neurons, and Schwann cells. […] FIG. 1B illustrates data regarding the toxicity of tacrolimus to DRGs, motor neurons, and Schwann cells. FIG. 1C illustrates data regarding the toxicity of prednisolone to DRGs, motor neurons, and Schwann cells.
Cells (DRGs, motor neurons, and Schwann cells) were cultured for 72 hours in various concentration of the immunosuppressive drugs and viability was evaluated using the Alamar blue viability assay. ISV's were diluted into media using a maximum of 1% dimethylsulfoxide (DMSO).
FIG. 2B illustrates data regarding the viability of DRGs, motor neurons, and Schwann cells cultured in about 10 μM tracrolimus with differing concentrations of prednisolone.

[2] = tested on: immune cells; conditions: cited from earlier work

C[C@]12C=CC(=O)C=C1CC[C@@H]1[C@@H]2[C@@H](O)C[C@@]2(C)[C@H]1CC[C@]2(O)C(=O)CO [Prednisolone, prednisolone]
Measures in vitro tolerated concentrations on PN cells [1]: 200 µM | dose tolerated by the cells (up to) [1]: about 200 μM | effective dose for inhibiting activation and proliferation of immune cells [2]: greater than 240 μM | in vitro effective concentration on immune cells [2]: 240 nM

C=CC[C@@H]1/C=C(\C)C[C@H](C)C[C@H](OC)[C@H]2O[C@@](O)(C(=O)C(=O)N3CCCC[C@H]3C(=O)O[C@H](/C(C)=C/[C@@H]3CC[C@@H](O)[C@H](OC)C3)[C@H](C)[C@@H](O)CC1=O)[C@H](C)C[C@@H]2OC [Tacrolimus, tacrolimus]
Measures in vitro tolerated concentrations on PN cells [1]: 10 to 25 µM | dose tolerated by the cells (up to) [1]: 10 to 25 µM | effective dose for inhibiting activation and proliferation of immune cells [2]: 50 to 100 µM | in vitro effective concentration on immune cells [2]: 0.5 to 1.0 nM
